Literature values in patent publication US20260374745A1, “METHODS FOR PRODUCING AROMATIC THIAZINES OR SELENAZINES” (Universität Heidelberg, priority 2023, published 2026).

Columns and labels:
[1] = test system: 3-deoxy-d-manno-octulosonic acid 8-phosphate (KDO 8-P) synthase; conditions: role: inhibitor; Birck et al., J. Am. Chem. Soc. 2000, 122, 9334-9335
HIV = conditions: Mizuhara et al., Org. Biomol. Chem. 2012, 10, 6792-6802

Compound: N=C1Sc2ccccc2C2=NCCCN12 [PD 404182]
- 3-deoxy-d-manno-octulosonic acid 8-phosphate (KDO 8-P) synthase inhibitor [1]: inhibitor
- anti-HIV activities (HIV): potent
